Data reported in patent US20070191324A1, “Methods for treatment or prophylaxis of aldosterone-mediated pathogenic effects in a subject using an epoxy-steroidal aldosterone antagonist” (priority 1999, published 2007).

How the values were obtained:
[1] = system: saline-hydrated conscious dogs treated with aldosterone; experiment: Antimineralocorticoid action in saline-hydrated conscious dogs treated with aldosterone (Example A-2); assay type: in vivo; settings: aldosterone i.v. infusion; antagonist 10 mg/kg orally
[2] = Pharmacokinetics and absorption of [14C]eplerenone in the rat (Example A-9); assay type: in vivo; settings: for Cmax: rat, oral 15 mg/kg
Experimental: Plasma, urine and fecal samples were analyzed for total radioactivity.

[3] = system: patients with hypertension; experiment: Dose-ranging study of eplerenone vs placebo and spironolactone in hypertension (Examples A-14, D-1); assay type: in vivo, human
Experimental: A multicenter, randomized, double-blind, parallel group study was conducted in patients with hypertension. […] The study consisted of a two-week pretreatment period for completion of screening procedures and discontinuation of any current antihypertensive medication(s). The screening period was followed by a four-week single-blind placebo lead-in treatment period. Randomization was followed by an eight-week double-blind active or placebo treatment period. The primary efficacy measure was the change from baseline in cuff diastolic blood pressure measured at trough as compared to placebo. Secondary efficacy measures included changes in cuff assessed trough systolic blood pressure and changes in average 24-hour diastolic and systolic blood pressure assessed by ambulatory blood pressure monitoring. Safety was assessed by conducting routine clinical lab tests, physical exams, ECGs, and monitoring for adverse events. […] The adjusted mean change in blood pressure (mm Hg) from baseline to final visit is described in Table […].

[4] = system: patients with mild to moderate hypertension; experiment: Eplerenone/HCTZ dose ranging factorial design study (Example D-2); assay type: in vivo, human
Experimental: Patients were assessed at weeks 0, 2, 4, and 8. Study assessments at protocol-specified timepoints included blood pressure (BP), heart rate, clinical laboratory analyses, vital signs, physical examinations, 12-lead ECG, and monitoring of adverse events. A total of 614 patients were randomized.

[5] = system: patients not controlled with ACE-I or ARB; experiment: Co-administration of eplerenone with ACE-I or ARB in mild-moderate hypertension (Example D-9); assay type: in vivo, human
Experimental: Patients examined in the study were those who currently were treated with an ACE-I and/or ARB and who had DBP ≧95 mmHg and <110 mmHg and SBP <180 mmHg. Previous antihypertensive therapy was withdrawn except a fixed dose of single ACE-I or ARB.

[6] = system: patients with mild-to-moderate hypertension; experiment: Long-term open-label safety and efficacy study of eplerenone (Example D-11); assay type: in vivo, human; set-up: mean change from baseline SBP: unit not given beside the values; settings: for Change Mean seated DBP, Baseline to End of Treatment / Change Mean seated SBP, Baseline to End of Treatment: Responders, ITT
Experimental: This 6- to 16-month, open-label, single-group, titration-to-effect study assessed the safety, tolerability, and efficacy of EPL in patients with mild-to-moderate hypertension.
Patients (n=586) with DBP ≧90 mmHg and <110 mmHg, or SBP ≧140 mmHg and <180 mmHg, received EPL 50 mg QD. If BP was uncontrolled at Weeks 2 or 4 (DBP ≧90 mmHg or SBP ≧140 mmHg), EPL was up-titrated to 100 mg QD and, if necessary, 200 mg QD. If BP remained uncontrolled at any time from Week 6 to the end of Month 3, a second antihypertensive medication of the investigator's choice was added. Safety, tolerability, and BP were assessed at protocol-specified times.

hypertensive patients = experiment: Eplerenone vs. amlodipine, ambulatory blood pressure monitoring, 16 weeks (Example D-12); assay type: in vivo, human
From the text: This was a multicenter, randomized, double-blind, active-controlled, placebo run-in, parallel group study. […] If symptomatic hypotension occurred at Week 2 or Weeks 4, 6, 8, or 12 and the patient was on the lowest dose level (Dose Level 1), the patient was to be withdrawn. Study assessments at protocol-specified timepoints included BP, heart rate, ABPM, Holter recording, clinical laboratory analyses including serum potassium levels, concomitant medications. Throughout the study, safety was assessed by routine clinical laboratory analyses, vital signs, physical examinations, 12-lead ECG, and monitoring of adverse events.

[7] = Pharmacokinetics in moderate hepatic impairment vs matched normal subjects (Example A-13); settings: for AUC / Cmax / AUC(0-inf) / half-life / Tmax: human, plasma, 400 mg; for AUC(0-inf): Single Dose AUC(0-∞), linear kinetics assessment; for half-life: T1/2, Mean;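 as to all read-outs here: impaired subjects were Child-Pugh Class B with ascites, compared against healthy volunteers matched for sex, age, weight and smoking, blood sampled before and after dosing on Days 1 and 7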
[8] = eplerenone 25, 50 or 200 mg daily, HCTZ 12.5 or 25 mg daily, 8 weeks
[9] = addition of eplerenone, 8 weeks
[10] = EPL 200 mg plus add-on therapy (N=172)
[11] = subgroup 50, 100, 200 mg QD + Ahyp (add-on therapy)
[12] = final dose level EPL 50 mg (N=68)
[13] = final dose level EPL 100 mg (N=89)
[14] = final dose level EPL 200 mg (N=104)
[15] = Mean, Multiple Dose 400 mg QD, Normal
[16] = Mean, Single Dose 400 mg, Normal
[17] = Mean, Multiple Dose 400 mg QD, Moderate
[18] = Mean, Single Dose 400 mg, Moderate
[19] = least squares mean, Multiple Dose 400 mg QD, Moderate Impairment
[20] = least squares mean, Single Dose 400 mg, Moderate Impairment

With COC(=O)[C@@H]1CC2=CC(=O)CC[C@]2(C)[C@@]23O[C@@H]2C[C@@]2(C)[C@@H](CC[C@@]24CCC(=O)O4)[C@H]13 [Eplerenone, Pregn-4-ene-7,21-dicarboxylic acid, 9,11-epoxy-17-hydroxy-3-oxo-, γ-lactone, methyl ester, (7α, 11α, 17β)-] the “Na/K Ratio” value [1] was 2.1, the “Urinary Excretion Potassium” value [1] was 11.9 ± 1 mmol/2 h and the “Urinary Excretion Sodium” value [1] was 24.4 ± 3 mmol/2 h. The “time of peak plasma concentration of total radioactivity” value ([2]; oral aqueous solution 15 mg/kg, male rat) was 1.1 h, the clearance ([2]; plasma, IV 15 mg/kg, male rat) was 20.3 mL/min/kg and the half-life ([2]; plasma, IV 15 mg/kg, male rat) was 0.803 h. The Cmax ([2]; plasma, female rats) was 3540 ng/mL, the Cmax ([2]; plasma, male rats) was 1710 ng/mL and the gynecomastia ([3]; 50-400 mg daily, 8 weeks) was “no reports of gynecomastia”. For the same compound, the safety and tolerability ([3]; 50-400 mg daily, QD or divided doses) was “safe and well tolerated”, the “DBP and SBP vs. placebo” value ([3]; wide range of doses, regardless of assessment method (FIG. D-1, D-2)) was “significant reductions” and the gynecomastia ([4]; eight weeks) was “Gynecomastia was not observed”. For the same compound, the safety and tolerability ([4]; eight weeks, monotherapy or in combination with HCTZ) was “safe and well tolerated”, the “DBP, change from Baseline to the Final Visit” value [4, 8] was “dose-dependent decreases in DBP” and the “SBP, change from Baseline to the Final Visit” value [4, 8] was “dose-dependent decreases in SBP”. The “laboratory abnormalities, K+, adverse events” value ([5]; addition of eplerenone to ACE-I or ARB) was “No significant increase in relevant laboratory abnormalities”, the “SBP & DBP in patients currently treated with ARB” value [5, 9] was “Significant reductions in SBP & DBP” and the “SBP in patients currently treated with ACE-I” value [5, 9] was “Significant reductions in SBP”. The heart rate ([5]; either group) was “No change in heart rate”, the “patients responding to eplerenone monotherapy” value ([6]; 261/582) was 44.8% and the “mean change from baseline DBP” value [6, 10] was −14.6. For the same compound, the “mean change from baseline SBP” value [6, 10] was −24.9, the “Change Mean seated DBP, Baseline to End of Treatment” value (“Change Mean seated DBP, Baseline” for short) ([6]; subgroup 50 mg QD) was −10.6 mmHg and the “Change Mean seated SBP, Baseline to End of Treatment” value (“Change Mean seated SBP, Baseline” below) ([6]; subgroup 50 mg QD) was −15.9 mmHg. The “Change Mean seated DBP, Baseline” value ([6]; subgroup 50, 100 mg QD) was −12.2 mmHg, the “Change Mean seated SBP, Baseline” value ([6]; subgroup 50, 100 mg QD) was −18.1 mmHg and the “Change Mean seated DBP, Baseline” value ([6]; subgroup 50, 100, 200 mg QD) was −12.5 mmHg. For the same compound, the “Change Mean seated SBP, Baseline” value ([6]; subgroup 50, 100, 200 mg QD) was −19.1 mmHg, the “Change Mean seated DBP, Baseline” value [6, 11] was −14.6 mmHg and the “Change Mean seated SBP, Baseline” value [6, 11] was −24.9 mmHg. For the same compound, the gynecomastia ([6]; doses of 50, 100, and 200 mg) was 0.7%, the “mean change from baseline DBP” value [6, 12] was −10.6 and the “mean change from baseline SBP” value [6, 12] was −15.9. For the same compound, the “mean change from baseline DBP” value [6, 13] was −12.2, the “mean change from baseline SBP” value [6, 13] was −18.1 and the “mean change from baseline DBP” value [6, 14] was −12.5. The “mean change from baseline SBP” value [6, 14] was −19.1, the “patients with treatment-emergent AEs of probable relationship to study medication” value ([6]; in vivo) was 8.4% and the “patients with treatment-emergent AEs of uncertain relationship to study medication” value ([6]; in vivo) was 21.5%. The “responders at the end of treatment, number” value ([6]; of 582 patients) was 433 patients, the “responders (seDBP<90 mmHg or ≧10 mmHg decrease from Baseline) at the end of treatment” value ([6]; of 582 patients, EPL 50-200 mg QD with or without add-on) was 74.3% and the “patients with elevated K+ levels” value ([6]; primarily those receiving EPL 200 mg) was 2.4%. For the same compound, the safety and tolerability ([6]; up to 14 months, 50-200 mg daily alone or 200 mg/day with another antihypertensive agent) was “safe and well tolerated”, the “anti-hypertensive effect, mean 24 hour systolic ABPM” value (hypertensive patients; eplerenone 50-200 mg, amlodipine 2.5-10 mg, 16 weeks) was “comparable” and the safety and tolerability (hypertensive patients; in vivo) was “safe and well tolerated”. For the same compound, the “time to steady-state concentrations” value ([7]; 400 mg QD dosing, both subject groups) was “by the fourth day”, the “mean AUC higher in moderate impairment than matched normal subjects” value ([7]; following single dosing) was 41-50% and the AUC ([7]; Mean, Multiple Dose 400 mg QD, Moderate hepatic impairment) was 48800 ng·h/mL. For the same compound, the AUC [7, 15] was 33800 ng·h/mL, the AUC ([7]; Mean, Single Dose 400 mg, Moderate hepatic impairment) was 51400 ng·h/mL and the AUC [7, 16] was 31000 ng·h/mL. The Cmax [7, 17] was 4170 ng/mL, the Cmax [7, 15] was 3880 ng/mL and the Cmax [7, 18] was 3790 ng/mL. The Cmax [7, 16] was 3840 ng/mL, the Cmax [7, 19] was 3810 ng/mL and the Cmax ([7]; least squares mean, Multiple Dose 400 mg QD, Normal) was 3670 ng/mL. It also gave a Cmax [7, 20] of 3410 ng/mL, a Cmax ([7]; least squares mean, Single Dose 400 mg, Normal) of 3810 ng/mL and an AUC(0-inf) ([7]; Moderate Hepatic Impairment) of 49800 ng·h/mL. It also gave an AUC(0-inf) ([7]; Normal) of 28700 ng·h/mL, a half-life ([7]; Multiple Dose 400 mg QD, Moderate) of 8.07 h and a half-life ([7]; Multiple Dose 400 mg QD, Normal) of 7.61 h. It also gave a half-life ([7]; Single Dose 400 mg, Moderate) of 6.78 h, a half-life ([7]; Single Dose 400 mg, Normal) of 6.31 h and a Tmax [7, 17] of 2.81 h. It also gave a Tmax [7, 18] of 2.56 h, a Tmax [7, 16] of 2.03 h and a Tmax [7, 19] of 2.9 h. The Tmax [7, 20] was 2.7 h.
